Here are results for 21 compounds from patent publication US20230091047A1 (priority 2019, published 2023).

Read-outs that look alike come from different tables or passages of the source.

Data set [1] relates to HBV (HepG2.117 cell line, inducibly HBV producing). In words: Anti-HBV activity: intracellular HBV DNA by real-time PCR in HepG2.117 cells after 3 days of treatment. In kind it is cell-based, hepatitis B virus. The note with it: Hepatitis B virus, HepG2.117, 72 h, read-out: EC50 (μM, mean value). In a few lines: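 Inducible HBV-producing HepG2.117 line (Tet-off); 3-day exposure to serially diluted compound after induction; real-time PCR of intracellular viral DNA.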
(In general: Quantitative PCR measures a nucleic acid by following its amplification.)

Data set [2] in a line: in vitro. In kind it is cell-based. The note with it: HepG2 or HepG2.117 cells, 3-days incubation (unmarked values), ATPlite, mean value. An outline of the steps: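 Luminescent ATP quantitation served as the viability endpoint following a 3- or 4-day incubation with test compounds.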
Background: In ATP-based viability assays light output follows the ATP content of the culture.

[3] abbreviates: HepG2.117 cells, 3 days of treatment, intracellular HBV DNA by real-time PCR, mean value.

One may read the EC50 as the concentration needed to bring the measured effect to its halfway point. Broadly, the CC50 is the concentration giving 50% cytotoxicity. With `CNC(=O)c1ccc(-n2c(NC(C)C)nc3c(c2=O)C[C@@H](C)N(C(=O)c2ccc(Cl)c(Cl)c2)C3)cc1OC` [Compound C317, 4-[(6R)-7-(3,4-dichlorobenzoyl)-6-methyl-4-oxo-2-[(propan-2-yl)amino]-5,6,7,8-tetrahydropyrido[3,4-d]pyrimidin-3(4H)-yl]-2-methoxy-N-methylbenzamide], in data set [1] (setting [3]), the EC50 turned out to be 0.14 µM. The compound also returned a CC50 at 3 days in data set [2] (human) of over 50 µM.

Consider `CNC(=O)c1cc(Cl)c(-n2c(NC(C)C)nc3c(c2=O)C[C@@H](C)N(C(=O)c2ccc(Cl)c(Cl)c2)C3)cc1OC` [Compound C322, 5-chloro-4-[(6R)-7-(3,4-dichlorobenzoyl)-6-methyl-4-oxo-2-[(propan-2-yl)amino]-5,6,7,8-tetrahydropyrido[3,4-d]pyrimidin-3(4H)-yl]-2-methoxy-N-methylbenzamide], for which the EC50 in data set [1] (setting [3]) was found to be 0.28 µM. Further, in data set [2] (human), the CC50 at 3 days is 24.2 µM.

Consider `CC(C)Nc1nc2c(c(=O)n1-c1cccc3c1CNC3=O)C[C@@H](C)N(C(=O)c1ccc(Cl)c(Cl)c1)C2` [Compound C323, (6R)-7-(3,4-dichlorobenzoyl)-6-methyl-3-(1-oxo-2,3-dihydro-1H-isoindol-4-yl)-2-[(propan-2-yl)amino]-5,6,7,8-tetrahydropyrido[3,4-d]pyrimidin-4(3H)-one], for which the EC50 in data set [1] (setting [3]) amounted to 0.35 µM. The compound also came in with a CC50 at 3 days in data set [2] (human) of over 50 µM.

`Cc1nc(-c2ccc(-n3c(NC(C)C)nc4c(c3=O)C[C@@H](C)N(C(=O)c3ccc(Cl)c(Cl)c3)C4)c(Cl)c2)c[nH]1` [Compound C324, (6R)-3-[2-chloro-4-(2-methyl-1H-imidazol-4-yl)phenyl]-7-(3,4-dichlorobenzoyl)-6-methyl-2-[(propan-2-yl)amino]-5,6,7,8-tetrahydropyrido[3,4-d]pyrimidin-4(3H)-one]: in data set [1] (setting [3]), the EC50 worked out at 0.41 µM. This compound yielded a CC50 at 3 days in data set [2] (human) of over 50 µM.

Regarding `CNC(=O)c1ccc(-n2c(NCc3ccc4cc[nH]c4c3)nc3c(c2=O)C[C@@H](C)N(C(=O)c2ccc(Cl)c(Cl)c2)C3)cc1` [Compound C325, 4-[(6R)-7-(3,4-dichlorobenzoyl)-2-{[(1H-indol-6-yl)methyl]amino}-6-methyl-4-oxo-5,6,7,8-tetrahydropyrido[3,4-d]pyrimidin-3(4H)-yl]-N-methylbenzamide], the EC50 in data set [1] (setting [3]) was 0.42 µM. Further, half-maximal cytotoxicity in data set [2] (human) (CC50 at 3 days) was put at 22.8 µM.

Consider `CNC(=O)c1ccc(-n2c(N[C@H](C)CCO)nc3c(c2=O)C[C@@H](C)N(C(=O)c2ccc(Cl)c(Cl)c2)C3)cc1` [Compound C326, 4-[(6R)-7-(3,4-dichlorobenzoyl)-2-{[(2R)-4-hydroxybutan-2-yl]amino}-6-methyl-4-oxo-5,6,7,8-tetrahydropyrido[3,4-d]pyrimidin-3(4H)-yl]-N-methylbenzamide], for which the EC50 in data set [1] (setting [3]) amounted to 0.46 µM. In data set [2] (human), this compound registered a CC50 at 3 days of over 50 µM.

For the compound `CNC(=O)c1ncc(-n2c(NC)nc3c(c2=O)C[C@@H](C)N(C(=O)c2ccc(Cl)c(Cl)c2)C3)cn1` [Compound C327, 5-[(6R)-7-(3,4-dichlorobenzoyl)-6-methyl-2-(methylamino)-4-oxo-5,6,7,8-tetrahydropyrido[3,4-d]pyrimidin-3(4H)-yl]-N-methylpyrimidine-2-carboxamide], the EC50 in data set [1] (setting [3]) turned out to be 5.15 µM. In addition, in data set [2] (human), the CC50 at 3 days was over 50 µM.

As for `CNC(=O)c1ncc(-n2c(NC(C)C)nc3c(c2=O)C[C@@H](C)N(C(=O)c2ccc(Cl)c(Cl)c2)C3)cn1` [Compound C328, 5-[(6R)-7-(3,4-dichlorobenzoyl)-6-methyl-4-oxo-2-[(propan-2-yl)amino]-5,6,7,8-tetrahydropyrido[3,4-d]pyrimidin-3(4H)-yl]-N-methylpyrimidine-2-carboxamide], the EC50 in data set [1] (setting [3]) worked out at 0.51 µM. The compound also registered a CC50 at 3 days in data set [2] (human) of over 50 µM.

Regarding `CNC(=O)c1ccc(-n2c(NC3CC3)nc3c(c2=O)C[C@@H](C)N(C(=O)c2ccc(Cl)c(Cl)c2)C3)cc1` [Compound C329, 4-[(6R)-2-(cyclopropylamino)-7-(3,4-dichlorobenzoyl)-6-methyl-4-oxo-5,6,7,8-tetrahydropyrido[3,4-d]pyrimidin-3(4H)-yl]-N-methylbenzamide], the concentration giving a half-maximal response (EC50) in data set [1] (setting [3]) stood at 0.55 µM. The CC50 at 3 days in data set [2] (human) is over 50 µM.

As for `CNC(=O)c1ccc(-n2c(N[C@H](C)CO)nc3c(c2=O)C[C@@H](C)N(C(=O)c2ccc(Cl)c(Cl)c2)C3)cc1` [Compound C330, 4-[(6R)-7-(3,4-dichlorobenzoyl)-2-{[(2R)-1-hydroxypropan-2-yl]amino}-6-methyl-4-oxo-5,6,7,8-tetrahydropyrido[3,4-d]pyrimidin-3(4H)-yl]-N-methylbenzamide], in data set [1] (setting [3]), the EC50 was determined as 0.9 µM. The CC50 at 3 days in data set [2] (human) is over 50 µM.

As to `CNC(=O)c1ccc(-n2c(NC)nc3c(c2=O)C[C@@H](C)N(C(=O)c2ccc(Cl)c(Cl)c2)C3)nc1` [Compound C331, 6-[(6R)-7-(3,4-dichlorobenzoyl)-6-methyl-2-(methylamino)-4-oxo-5,6,7,8-tetrahydropyrido[3,4-d]pyrimidin-3(4H)-yl]-N-methylpyridine-3-carboxamide], in data set [1] (setting [3]), the EC50 amounted to 0.95 µM. Also, the CC50 at 3 days in data set [2] (human) is over 50 µM.

Turning to `CNC(=O)c1ccc(-n2c(N3CC4(CCC4)C3)nc3c(c2=O)C[C@@H](C)N(C(=O)c2ccc(Cl)c(Cl)c2)C3)cc1` [Compound C332, 4-[(6R)-2-(2-azaspiro[3.3]heptan-2-yl)-7-(3,4-dichlorobenzoyl)-6-methyl-4-oxo-5,6,7,8-tetrahydropyrido[3,4-d]pyrimidin-3(4H)-yl]-N-methylbenzamide], in data set [1] (setting [3]), the EC50 is 1.46 µM. The CC50 at 3 days in data set [2] (human) turned out to be 26 µM.

Regarding `CNC(=O)c1ccc(-n2c(NC3CC3(C)C)nc3c(c2=O)C[C@@H](C)N(C(=O)c2ccc(Cl)c(Cl)c2)C3)cc1` (stereo partly drawn) [Compound C333, 4-[(6R)-7-(3,4-dichlorobenzoyl)-2-[(2,2-dimethylcyclopropyl)amino]-6-methyl-4-oxo-5,6,7,8-tetrahydropyrido[3,4-d]pyrimidin-3(4H)-yl]-N-methylbenzamide], the EC50 in data set [1] (setting [3]) worked out at 1.64 µM. Besides, the CC50 at 3 days in data set [2] (human) is over 43 µM.

Consider `CNC(=O)c1ccc(-n2c(N[C@H]3CC3(C)C)nc3c(c2=O)C[C@@H](C)N(C(=O)c2ccc(Cl)c(Cl)c2)C3)cc1` [Compound C334, 4-[(6R)-7-(3,4-dichlorobenzoyl)-2-{[(1S)-2,2-dimethylcyclopropyl]amino}-6-methyl-4-oxo-5,6,7,8-tetrahydropyrido[3,4-d]pyrimidin-3(4H)-yl]-N-methylbenzamide], for which the EC50 in data set [1] (setting [3]) stood at 1.89 µM. In data set [2] (human), this compound showed a 50% cytotoxic concentration (CC50) at 3 days of over 50 µM.

In the case of `CNC(=O)c1ccc(-n2c(N[C@H](C)CC(=O)O)nc3c(c2=O)C[C@@H](C)N(C(=O)c2ccc(Cl)c(Cl)c2)C3)cc1` [Compound C336, (3R)-3-({(6R)-7-(3,4-dichlorobenzoyl)-6-methyl-3-[4-(methylcarbamoyl)phenyl]-4-oxo-3,4,5,6,7,8-hexahydropyrido[3,4-d]pyrimidin-2-yl}amino)butanoic acid], the EC50 in data set [1] (setting [3]) turned out to be 7.66 µM. In data set [2] (human), the CC50 at 3 days was over 50 µM.

Consider `CNC(=O)c1ccc(-n2c(NC(C)C)nc3c(c2=O)C[C@@H](C)N(C(=O)c2ccc(Cl)c(Cl)c2)C3)cc1Cl` [Compound C338, 2-chloro-4-[(6R)-7-(3,4-dichlorobenzoyl)-6-methyl-4-oxo-2-[(propan-2-yl)amino]-5,6,7,8-tetrahydropyrido[3,4-d]pyrimidin-3(4H)-yl]-N-methylbenzamide], for which the EC50 in data set [1] (setting [3]) was found to be 0.1 µM. For the same compound, the CC50 at 3 days in data set [2] (human) is over 50 µM.

For the compound `CNS(=O)(=O)c1ccc(-n2c(NC(C)C)nc3c(c2=O)C[C@@H](C)N(C(=O)c2ccc(Cl)c(Cl)c2)C3)cc1` [Compound C339, 4-[(6R)-7-(3,4-dichlorobenzoyl)-6-methyl-4-oxo-2-[(propan-2-yl)amino]-5,6,7,8-tetrahydropyrido[3,4-d]pyrimidin-3(4H)-yl]-N-methylbenzene-1-sulfonamide], the EC50 in data set [1] (setting [3]) is 0.57 µM. For the same compound, the CC50 at 3 days in data set [2] (human) was over 50 µM.

Regarding `CNC(=O)c1ccc(-n2c(NC(C)C)nc3c(c2=O)C[C@@H](C)N(C(=O)c2ccc(Cl)c(Cl)c2)C3)cn1` [Compound C344], in data set [1], the EC50 came out at 0.15 µM. Also, the CC50 at 3 days in data set [2] is over 50 µM.

Consider `CNC(=O)c1ccc(-n2c(N(C)C34CC(C3)C4)nc3c(c2=O)C[C@@H](C)N(C(=O)c2ccc(Cl)c(Cl)c2)C3)cc1` [Compound C345, 4-[(6R)-2-[(bicyclo[1.1.1]pentan-1-yl)(methyl)amino]-7-(3,4-dichlorobenzoyl)-6-methyl-4-oxo-5,6,7,8-tetrahydropyrido[3,4-d]pyrimidin-3(4H)-yl]-N-methylbenzamide], for which the EC50 in data set [1] (setting [3]) was found to be 0.32 µM. The CC50 at 3 days in data set [2] (human) was determined as 21.6 µM.

On to `CNC(=O)c1ccc(-n2c(NC(C)c3ccc(OC)cc3)nc3c(c2=O)C[C@@H](C)N(C(=O)c2ccc(Cl)c(Cl)c2)C3)cc1` (stereo partly drawn) [Compound C346, 4-[(6R)-7-(3,4-dichlorobenzoyl)-2-{[1-(4-methoxyphenyl)ethyl]amino}-6-methyl-4-oxo-5,6,7,8-tetrahydropyrido[3,4-d]pyrimidin-3(4H)-yl]-N-methylbenzamide], for which the EC50 in data set [1] (setting [3]) stood at 0.13 µM. The CC50 at 3 days in data set [2] (human) came out at 36.3 µM.

With `CNC(=O)c1ccc(-n2c(NC3CCC34CCC4)nc3c(c2=O)C[C@@H](C)N(C(=O)c2ccc(Cl)c(Cl)c2)C3)cc1` (stereo partly drawn) [Compound C347, 4-[(6R)-7-(3,4-dichlorobenzoyl)-6-methyl-4-oxo-2-[(spiro[3.3]heptan-1-yl)amino]-5,6,7,8-tetrahydropyrido[3,4-d]pyrimidin-3(4H)-yl]-N-methylbenzamide], in data set [1] (setting [3]), the EC50 stood at 0.27 µM. The compound also showed a CC50 at 3 days in data set [2] (human) of 24.2 µM.
